In patent US20150368296A1, “Method for preventing or treating heart diseases by using a composition containing an isolated peptide” (Tunghai University, priority 2014, published 2015):

What was measured:
Assay type in all cases: in vivo
STAT-3 = assay: Western blot of STAT-3 in heart tissue of high-fat diet mice; conditions: high-fat diet C57BL/6 mice, 5, 10 and 25 mg/kg/day intraperitoneally (groups 3 to 5) vs group 2 (high-fat diet, saline); relative to tubulin
Experimental: (§1) The male C57BL/6 mice at the age of 6 weeks were divided into 5 groups for 8 mice in each group. […]
(§2) Protein concentration of the extract was determined by Lowry's protein assay method. […]
(§3) The protein extraction of the mice heart tissues from the each group in example 2 were processed by the western blot method in example 3 to observe the expressions of the related signal transduction proteins of heart hypertrophy including: STAT-3, IL-6, MEK-5 and ERK-5. The results were shown at FIGS. 6 and 7, wherein the tubulin was used for an internal control in FIG. 6 and the expression levels of the related signal transduction proteins of heart hypertrophy in the mice heart tissues from each group was calculated basing on the expression level of tubulin in FIG. 7.

MMP-2 = assay: Western blot of MMP-2 in heart tissue of high-fat diet mice; conditions: high-fat diet C57BL/6 mice, 5, 10 and 25 mg/kg/day intraperitoneally (groups 3 to 5) vs group 2 (high-fat diet, saline); relative to tubulin
Experimental: as §1, §2
(§4) The protein extraction of the mice heart tissues from the each group in example 2 were processed by the western blot method in example 3 to observe the expressions of the related proteins of cardiac fibrosis pathway including: FGF-2, ERK-1, UPA, MMP-2 and MMP-9. The results were shown at FIGS. 10 and 11, wherein the tubulin was used for an internal control in FIG. 10 and the expression levels of FGF-2, ERK-1, UPA, MMP-2 and MMP-9 in the mice heart tissues from the each group was calculated basing on the expression level of tubulin in each figures of FIG. 11.

FGF-2 = assay: Western blot of FGF-2 in heart tissue of high-fat diet mice; conditions: high-fat diet C57BL/6 mice, 5, 10 and 25 mg/kg/day intraperitoneally (groups 3 to 5) vs group 2 (high-fat diet, saline); relative to tubulin
Experimental: as §1, §2, §4

cytochrome C = assay: Western blot of cytochrome C in heart tissue of high-fat diet mice; conditions: high-fat diet C57BL/6 mice, 5, 10 and 25 mg/kg/day intraperitoneally (groups 3 to 5) vs group 2 (high-fat diet, saline); relative to tubulin
Experimental: as §1, §2
(§5) The protein extraction of the mice heart tissues from the each group in example 2 were processed by the western blot method in example 3 to observe the expressions of related apoptosis regulatory proteins in the mice heart tissues from the each group. The results were shown at FIGS. 2 and 3, wherein the tubulin was used for an internal control in FIG. 2 and the expression levels of related apoptosis regulatory proteins were calculated basing on the expression level of tubulin in each figure of FIG. 3.

calcineurin = assay: Western blot of calcineurin in heart tissue of high-fat diet mice; conditions: high-fat diet C57BL/6 mice, 5, 10 and 25 mg/kg/day intraperitoneally (groups 3 to 5) vs group 2 (high-fat diet, saline); relative to tubulin
Experimental: as §1, §2
(§6) The protein extraction of the mice heart tissues from the each group in example 2 were processed by the western blot method in example 3 to observe the expressions of nuclear factor of activated T-cells C3 (NFTA-C3) and calcineurin in the mice heart tissues from the each group. The results were shown at FIGS. 4 and 5, wherein the tubulin was used for an internal control in FIG. 4 and the expression levels of NFTA-C3 and calcineurin were calculated basing on the expression level of tubulin in each figure of FIG. 5.

ERK-1 = assay: Western blot of ERK-1 in heart tissue of high-fat diet mice; conditions: high-fat diet C57BL/6 mice, 5, 10 and 25 mg/kg/day intraperitoneally (groups 3 to 5) vs group 2 (high-fat diet, saline); relative to tubulin
Experimental: as §1, §2, §4

p38α protein = assay: Western blot of p38α protein in heart tissue of high-fat diet mice; conditions: high-fat diet C57BL/6 mice, 5, 10 and 25 mg/kg/day intraperitoneally (groups 3 to 5) vs group 2 (high-fat diet, saline); relative to tubulin
Experimental: (§7) The male C57BL/6 mice at the age of 6 weeks were divided into 5 groups for 8 mice in each group. The each group of mice were feed at 24±2° C. of temperature, humidity of 55±10% and 12/12 light cycle for 8 weeks, wherein the group 1 was control group on a normal diet (PMI Nutrition International, Brentwood, Mo., USA) and injected 0.9% saline intraperitoneally; the group 2 was fed high-fat diet to induce the mice into heart hypertrophy model and injected 0.9% saline intraperitoneally; the group 3 was fed high-fat diet and SEQ ID NO.:1 peptide was injected intraperitoneally with the dose of 5 mg/kg/day; the group 4 was fed high-fat diet and SEQ ID NO.:1 peptide was injected intraperitoneally with the dose of 10 mg/kg/day; the group 5 was fed high-fat diet and SEQ ID NO.:1 peptide was injected intraperitoneally with the dose of 25 mg/kg/day. […]
as §2
(§8) The protein extraction of the mice heart tissues from the each group in example 2 were processed by the western blot method in example 3 to observe the expressions of p38α protein and JNK. The results were shown at FIGS. 8 and 9, wherein the tubulin was used for an internal control in FIG. 8 and the expression levels of p38α protein and JNK were calculated basing on the expression level of tubulin in each figure of FIG. 9.

BNP = assay: Western blot of BNP in heart tissue of high-fat diet mice; conditions: high-fat diet C57BL/6 mice, 5, 10 and 25 mg/kg/day intraperitoneally (groups 3 to 5) vs group 2 (high-fat diet, saline); relative to tubulin
Experimental: as §1, §2
(§9) The protein extraction of the mice heart tissues from the each group in example 2 were processed by the western blot method in example 3 to observe the expressions of the indicator of heart hypertrophy and heart failure. The results were shown at FIGS. 12 and 13, wherein the tubulin was used for an internal control in FIG. 12 and the expression levels of the ANP and BNP in the mice heart tissues from the each group was calculated basing on the expression level of tubulin in each figures of FIG. 13.

myocardial cells = assay: H&E stained section of heart tissues of high-fat diet mice; conditions: 15 and 25 mg/kg/day intraperitoneally (groups 3 and 4) vs group 2 (high-fat diet, saline)
Experimental: The male C57BL/6 mice at the age of 6 weeks were divided into 5 groups for 8 mice in each group. The each group of mice were feed at 24±2° C. of temperature, humidity of 55±10% and 12/12 light cycle for 8 weeks, wherein the group 1 was control group on a normal diet (PMI Nutrition International, Brentwood, Mo., USA) and injected 0.9% saline intraperitoneally; the group 2 was fed high-fat diet to induce the mice into heart hypertrophy model and injected 0.9% saline intraperitoneally; the group 3 was fed high-fat diet and SEQ ID NO.:1 peptide was injected intraperitoneally with the dose of 5 mg/kg/day; the group 4 was fed high-fat diet and SEQ ID NO.:1 peptide was injected intraperitoneally with the dose of 10 mg/kg/day; the group 5 was fed high-fat diet and SEQ ID NO.:1 peptide was injected intraperitoneally with the dose of 25 mg/kg/day. The injection period of each group of mice was between the third week to the sixth week of feeding period. The high-fat diet contained 60% of energy as fat.
The feeding method was the same with example 1. Mice were divided into 4 groups for feeding at different conditions. The intraperitoneal injection was performed between the third week and the sixth week of the feeding period. […]

Bcl-2 protein = assay: Western blot of Bcl-2 in heart tissue of high-fat diet mice; conditions: high-fat diet C57BL/6 mice, 5, 10 and 25 mg/kg/day intraperitoneally (groups 3 to 5) vs group 2 (high-fat diet, saline); relative to tubulin
Experimental: as §1, §2, §5

[1] = test system: nuclear factor of activated T-cells C3 (NFTA-C3); assay: Western blot of NFTA-C3 in heart tissue of high-fat diet mice; conditions: high-fat diet C57BL/6 mice, 5, 10 and 25 mg/kg/day intraperitoneally (groups 3 to 5) vs group 2 (high-fat diet, saline); relative to tubulin
Experimental: as §1, §2, §6

MMP-9 = assay: Western blot of MMP-9 in heart tissue of high-fat diet mice; conditions: high-fat diet C57BL/6 mice, 5, 10 and 25 mg/kg/day intraperitoneally (groups 3 to 5) vs group 2 (high-fat diet, saline); relative to tubulin
Experimental: as §1, §2, §4

ERK-5 = assay: Western blot of ERK-5 in heart tissue of high-fat diet mice; conditions: high-fat diet C57BL/6 mice, 5, 10 and 25 mg/kg/day intraperitoneally (groups 3 to 5) vs group 2 (high-fat diet, saline); relative to tubulin
Experimental: as §1, §2, §3

MEK-5 = assay: Western blot of MEK-5 in heart tissue of high-fat diet mice; conditions: high-fat diet C57BL/6 mice, 5, 10 and 25 mg/kg/day intraperitoneally (groups 3 to 5) vs group 2 (high-fat diet, saline); relative to tubulin
Experimental: as §1, §2, §3

ANP = assay: Western blot of ANP in heart tissue of high-fat diet mice; conditions: high-fat diet C57BL/6 mice, 5, 10 and 25 mg/kg/day intraperitoneally (groups 3 to 5) vs group 2 (high-fat diet, saline); relative to tubulin
Experimental: as §1, §2, §9

UPA = assay: Western blot of UPA in heart tissue of high-fat diet mice; conditions: high-fat diet C57BL/6 mice, 5, 10 and 25 mg/kg/day intraperitoneally (groups 3 to 5) vs group 2 (high-fat diet, saline); relative to tubulin
Experimental: as §1, §2, §4

JNK = assay: Western blot of JNK in heart tissue of high-fat diet mice; conditions: high-fat diet C57BL/6 mice, 5, 10 and 25 mg/kg/day intraperitoneally (groups 3 to 5) vs group 2 (high-fat diet, saline); relative to tubulin
Experimental: as §7, §2, §8

caspase-3 = assay: Western blot of activated caspase-3 in heart tissue of high-fat diet mice; conditions: high-fat diet C57BL/6 mice, 5, 10 and 25 mg/kg/day intraperitoneally (groups 3 to 5) vs group 2 (high-fat diet, saline); relative to tubulin
Experimental: as §1, §2, §5

IL-6 = assay: Western blot of IL-6 in heart tissue of high-fat diet mice; conditions: high-fat diet C57BL/6 mice, 5, 10 and 25 mg/kg/day intraperitoneally (groups 3 to 5) vs group 2 (high-fat diet, saline); relative to tubulin
Experimental: as §1, §2, §3

## SEQ ID NO.:1 peptide: isolated peptide which amino acid sequence is SEQ ID NO.: 1; extracted from organisms, separated by hydrolysis or chemical synthesis (VHVV)
STAT-3
  expression level of STAT-3 in the heart tissues: obviously lower
MMP-2
  expression level of MMP-2 (related protein of cardiac fibrosis pathway) in heart tissues: obviously lower
FGF-2
  expression level of FGF-2 (related protein of cardiac fibrosis pathway) in heart tissues: obviously lower
Cytochrome C
  expression level of cytochrome C in the heart cell: obviously decreased
calcineurin
  expression level of calcineurin in the heart cells: obviously decreased
ERK-1
  expression level of ERK-1 (related protein of cardiac fibrosis pathway) in heart tissues: obviously lower
p38α protein
  expression level of p38α protein in the heart cells: significantly lower
BNP
  expression level of BNP in the heart tissues: obviously decreased
Myocardial cells
  arrangement of myocardial cells in H&E stained heart sections: more orderly and closely and has normal structure of heart muscles
Bcl-2 protein
  expression level of Bcl-2 in the heart cell: obviously increased
[1]
  expression level of NFTA-C3 in the heart cells: obviously decreased
MMP-9
  expression level of MMP-9 (related protein of cardiac fibrosis pathway) in heart tissues: obviously lower
ERK-5
  expression level of ERK-5 in the heart tissues: obviously lower
MEK-5
  expression level of MEK-5 in the heart tissues: obviously lower
ANP
  expression level of ANP in the heart tissues: obviously decreased
UPA
  expression level of UPA (related protein of cardiac fibrosis pathway) in heart tissues: obviously lower
JNK
  expression level of JNK in the heart cells: significantly lower
caspase-3
  expression level of activated caspase-3 in the heart cell: obviously decreased
IL-6
  expression level of IL-6 in the heart tissues: obviously lower
